Measured values as given in patent US10988523B2, “Modified lipidated Relaxin B chain peptides and their therapeutic use” (Sanofi, priority 2018, dated 2021).
Converted amounts (≈) assume the structure as drawn. Like-named read-outs stand apart in the source and are kept apart here. *1 amine or outer side, *2 acyl side, *3 side chain or, on linkers, in order; H or OH if unused. Where a SMILES comes first, the peptide text is derived from it. Side-chain parts run from the residue outwards. [ ]: non-standard residue; d: D form. The star is where a group is joined. PEG12 = NCCOCCOCCOCCOCCOCCOCCOCCOCCOCCOCCOCCOCCC(=O)O; γGlu = O=C(O)[C@H](CCC(=O)[*:2])N[*:1]; Stearoyl = CCCCCCCCCCCCCCCCCC(=O)*; Palmitoyl = CCCCCCCCCCCCCCCC(=O)*; αMeK = C[C@](N)(CCCCN)C(=O)O; Nle = CCCC[C@H](N)C(=O)O; AEEA = NCCOCCOCC(=O)O; Aib = CC(C)(N)C(=O)O

Assay: Solubility testing of peptides in buffer
Assay type: physicochemical
[1] = acetate buffer, pH 4.5, read-out: Solubility Acetate buffer pH 4.5
[2] = phosphate buffer, pH 7.4, read-out: Solubility phosphate buffer pH 7.4
[3] = acetate buffer 50 mM pH 4.5, target solubility 10.0 mg/ml, read-out: Solubility Acetate buffer pH 4.5
[4] = phosphate buffer 50 mM pH 7.4, target solubility 10.0 mg/ml, read-out: Solubility phosphate buffer pH 7.4

Compound	solubility [1]	solubility [2]	solubility [3]	solubility [4]	solubility (acetate buffer 50 mM pH 4.5, target solubility 15.0 mg/ml, read-out: Solubility Acetate buffer pH 4.5)
CCCCCCCCCCCCCCCCCC(=O)N[C@@H](CCC(=O)N[C@@H](CCC(=O)N[C@@H](CCC(=O)NCCCC[C@H](NC(=O)CCOCCOCCOCCOCCOCCOCCOCCOCCOCCOCCOCCOCCNC(=O)[C@H](CCCCNC(C)=O)NC(=O)[C@H](CCCCN)NC(=O)[C@H](CCCNC(=N)N)NC(=O)C(C)(C)NC(=O)[C@H](CO)NC(=O)[C@H](Cc1c[nH]c2ccccc12)NC(=O)[C@@H](NC(=O)[C@H](CO)NC(=O)[C@H](CCCC)NC(=O)CNC(=O)[C@H](CCC(=O)O)NC(=O)C(C)(C)NC(=O)C(C)(C)NC(=O)[C@@H](NC(=O)[C@H](CCCCNC(C)=O)NC(=O)[C@H](C)NC(=O)[C@H](CCCNC(=N)N)NC(=O)[C@@H](NC(=O)[C@H](CCCCN)NC(=O)[C@H](CCC(=O)O)NC(=O)[C@H](CCCNC(=N)N)NC(=O)CNC(=O)[C@H](CCC(=O)O)NC(=O)[C@H](CC(C)C)NC(C)=O)C(C)C)[C@@H](C)CC)[C@@H](C)O)C(N)=O)C(=O)O)C(=O)O)C(=O)O [compound 33] (Ac-LEGREKVRAK(Ac)I[Aib][Aib]EG[Nle]STWS[Aib]RKK(Ac)[PEG12]K([γGlu-γGlu-γGlu-Stearoyl])-NH2)	5400 µg/mL (≈ 1280 µM)	5400 µg/mL (≈ 1280 µM)	–	–	–
CCCCCCCCCCCCCCCC(=O)N[C@@H](CCC(=O)N[C@@H](CCC(=O)N[C@@H](CCC(=O)N[C@@H](CCC(=O)NCCCC[C@H](NC(=O)COCCOCCNC(=O)COCCOCCNC(=O)COCCOCCNC(=O)COCCOCCNC(=O)[C@H](CCCCNC(C)=O)NC(=O)[C@H](C)NC(=O)[C@H](CCCNC(=N)N)NC(=O)[C@](C)(CCCCN)NC(=O)[C@H](CO)NC(=O)[C@H](Cc1ccccc1)NC(=O)[C@@H](NC(=O)[C@H](CO)NC(=O)[C@H](CCC(N)=O)NC(=O)CNC(=O)[C@H](CCC(=O)O)NC(=O)C(C)(C)NC(=O)C(C)(C)NC(=O)[C@@H](NC(=O)[C@H](CCCCNC(C)=O)NC(=O)[C@H](C)NC(=O)[C@H](CCCNC(=N)N)NC(=O)[C@@H](NC(=O)[C@H](CCCCN)NC(=O)[C@H](CCC(=O)O)NC(=O)[C@H](CCCNC(=N)N)NC(=O)CNC(=O)[C@H](CCC(=O)O)NC(=O)[C@H](CC(C)C)NC(C)=O)C(C)C)[C@@H](C)CC)[C@@H](C)O)C(N)=O)C(=O)O)C(=O)O)C(=O)O)C(=O)O [compound 170] (Ac-LEGREKVRAK(Ac)I[Aib][Aib]EGQSTFS[αMeK]RAK(Ac)[AEEA][AEEA][AEEA][AEEA]K([γGlu-γGlu-γGlu-γGlu-Palmitoyl])-NH2)	–	–	9800 µg/mL (≈ 2280 µM)	> 10000 µg/mL	–
CCCCCCCCCCCCCCCCCC(=O)N[C@@H](CCC(=O)N[C@@H](CCC(=O)N[C@@H](CCC(=O)NCCOCCOCC(=O)NCCOCCOCC(=O)NCCOCCOCC(=O)NCCCC[C@H](NC(=O)[C@H](CCCCNC(C)=O)NC(=O)[C@H](CCCCN)NC(=O)[C@H](CCCNC(=N)N)NC(=O)C(C)(C)NC(=O)[C@H](CO)NC(=O)[C@H](Cc1c[nH]c2ccccc12)NC(=O)[C@@H](NC(=O)[C@H](CO)NC(=O)[C@H](CCCC)NC(=O)CNC(=O)[C@H](CCC(=O)O)NC(=O)C(C)(C)NC(=O)C(C)(C)NC(=O)[C@@H](NC(=O)[C@H](CCCCNC(C)=O)NC(=O)[C@H](C)NC(=O)[C@H](CCCNC(=N)N)NC(=O)[C@@H](NC(=O)[C@H](CCCCN)NC(=O)[C@H](CCC(=O)O)NC(=O)[C@H](CCCNC(=N)N)NC(=O)CNC(=O)[C@H](CCC(=O)O)NC(=O)[C@H](CC(C)C)NC(C)=O)C(C)C)[C@@H](C)CC)[C@@H](C)O)C(N)=O)C(=O)O)C(=O)O)C(=O)O [compound 81] (Ac-LEGREKVRAK(Ac)I[Aib][Aib]EG[Nle]STWS[Aib]RKK(Ac)K([AEEA-AEEA-AEEA-γGlu-γGlu-γGlu-Stearoyl])-NH2)	–	–	–	–	11900 µg/mL (≈ 2920 µM)

Other lines, results leading:

solubility [1]	solubility [2]	solubility [3]	solubility [4]	solubility (acetate buffer 50 mM pH 4.5, target solubility 15.0 mg/ml, read-out: Solubility Acetate buffer pH 4.5)	Compound
5700 µg/mL (≈ 1550 µM)	5700 µg/mL (≈ 1550 µM)	–	–	–	CCCCCCCCCCCCCCCC(=O)N[C@@H](CCC(=O)N[C@@H](CCC(=O)N[C@@H](CCC(=O)NCCOCCOCC(=O)NCCOCCOCC(=O)NCCCC[C@H](NC(=O)[C@H](CCCCN)NC(=O)[C@H](CCCNC(=N)N)NC(=O)C(C)(C)NC(=O)[C@H](CO)NC(=O)[C@H](Cc1c[nH]c2ccccc12)NC(=O)[C@@H](NC(=O)[C@H](CO)NC(=O)[C@H](CCCC)NC(=O)CNC(=O)[C@H](CCC(=O)O)NC(=O)C(C)(C)NC(=O)C(C)(C)NC(=O)[C@@H](NC(=O)[C@H](CCC(N)=O)NC(=O)[C@H](C)NC(=O)[C@H](CCCNC(=N)N)NC(=O)[C@@H](NC(=O)[C@H](CCCCN)NC(=O)[C@H](CCC(=O)O)NC(=O)[C@H](CCCNC(=N)N)NC(=O)CNC(=O)[C@H](CCC(=O)O)NC(=O)[C@H](CC(C)C)NC(C)=O)C(C)C)[C@@H](C)CC)[C@@H](C)O)C(N)=O)C(=O)O)C(=O)O)C(=O)O [compound 58] (Ac-LEGREKVRAQI[Aib][Aib]EG[Nle]STWS[Aib]RKK([AEEA-AEEA-γGlu-γGlu-γGlu-Palmitoyl])-NH2)
–	–	1500 µg/mL (≈ 351 µM)	> 10000 µg/mL	–	CCCCCCCCCCCCCCCC(=O)N[C@@H](CCC(=O)N[C@@H](CCC(=O)N[C@@H](CCC(=O)N[C@@H](CCC(=O)NCCCC[C@H](NC(=O)COCCOCCNC(=O)COCCOCCNC(=O)COCCOCCNC(=O)COCCOCCNC(=O)[C@H](CCCCNC(C)=O)NC(=O)[C@H](C)NC(=O)[C@H](CCCNC(=N)N)NC(=O)[C@](C)(CCCCN)NC(=O)[C@H](CO)NC(=O)[C@H](Cc1ccccc1)NC(=O)[C@@H](NC(=O)[C@H](CO)NC(=O)[C@H](CCCC)NC(=O)CNC(=O)[C@H](CCC(=O)O)NC(=O)C(C)(C)NC(=O)C(C)(C)NC(=O)[C@@H](NC(=O)[C@H](CCCCNC(C)=O)NC(=O)[C@H](C)NC(=O)[C@H](CCCNC(=N)N)NC(=O)[C@@H](NC(=O)[C@H](CCCCN)NC(=O)[C@H](CCC(=O)O)NC(=O)[C@H](CCCNC(=N)N)NC(=O)CNC(=O)[C@H](CCC(=O)O)NC(=O)[C@H](CC(C)C)NC(C)=O)C(C)C)[C@@H](C)CC)[C@@H](C)O)C(N)=O)C(=O)O)C(=O)O)C(=O)O)C(=O)O [compound 150] (Ac-LEGREKVRAK(Ac)I[Aib][Aib]EG[Nle]STFS[αMeK]RAK(Ac)[AEEA][AEEA][AEEA][AEEA]K([γGlu-γGlu-γGlu-γGlu-Palmitoyl])-NH2)
